In patent US8946147B2 (priority 2010, dated 2015):
Where “and” joins values, the source holds several entries; their conditions need not be identical. Equal entries are not always repeated. Each block holds one compound with its values, some of them ahead of it. Positions of bridges follow the written chain, without caps; N, C: chain ends. Non-standard residues stand in square brackets, D forms with d. Residues, ends and D or L forms follow the SMILES beside them. Chains are numbered I, II in the order given. *: point of attachment. Phe(4-NH2) = Nc1ccc(C[C@H](N)C(=O)O)cc1; X1 = NOCC(=O)*

Columns and labels:
[1] = target: T1, human insulin receptor (Homo sapiens, UniProt P06213); test: Insulin receptor binding assay (scintillation proximity competition); conditions: for % Activity of Insulin: Table 3A, in vitro binding
T1 construct: expressed in transfected cells; plasma membrane fragments
T1 sequence (P06213 28-758 limits assumed): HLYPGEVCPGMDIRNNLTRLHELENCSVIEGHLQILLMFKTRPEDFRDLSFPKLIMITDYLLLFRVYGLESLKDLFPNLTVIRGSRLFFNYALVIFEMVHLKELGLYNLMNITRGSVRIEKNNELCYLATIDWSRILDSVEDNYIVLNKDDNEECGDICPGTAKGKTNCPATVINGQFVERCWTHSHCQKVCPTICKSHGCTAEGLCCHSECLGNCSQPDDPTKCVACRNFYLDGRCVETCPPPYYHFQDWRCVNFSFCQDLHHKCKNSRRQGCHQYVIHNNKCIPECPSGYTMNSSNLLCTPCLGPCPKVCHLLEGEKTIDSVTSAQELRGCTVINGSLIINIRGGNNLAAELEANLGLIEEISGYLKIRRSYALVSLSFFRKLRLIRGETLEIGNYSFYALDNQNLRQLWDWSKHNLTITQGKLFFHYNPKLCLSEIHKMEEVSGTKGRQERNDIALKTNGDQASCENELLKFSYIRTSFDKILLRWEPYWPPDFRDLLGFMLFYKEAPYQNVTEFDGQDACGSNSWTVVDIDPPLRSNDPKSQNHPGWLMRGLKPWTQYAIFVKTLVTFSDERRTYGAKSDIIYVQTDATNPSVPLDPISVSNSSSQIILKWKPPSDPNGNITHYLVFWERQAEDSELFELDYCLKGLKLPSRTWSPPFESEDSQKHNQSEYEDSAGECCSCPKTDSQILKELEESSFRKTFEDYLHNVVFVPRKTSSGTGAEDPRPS
T1 sequence (P06213 763-1382 partner limits assumed): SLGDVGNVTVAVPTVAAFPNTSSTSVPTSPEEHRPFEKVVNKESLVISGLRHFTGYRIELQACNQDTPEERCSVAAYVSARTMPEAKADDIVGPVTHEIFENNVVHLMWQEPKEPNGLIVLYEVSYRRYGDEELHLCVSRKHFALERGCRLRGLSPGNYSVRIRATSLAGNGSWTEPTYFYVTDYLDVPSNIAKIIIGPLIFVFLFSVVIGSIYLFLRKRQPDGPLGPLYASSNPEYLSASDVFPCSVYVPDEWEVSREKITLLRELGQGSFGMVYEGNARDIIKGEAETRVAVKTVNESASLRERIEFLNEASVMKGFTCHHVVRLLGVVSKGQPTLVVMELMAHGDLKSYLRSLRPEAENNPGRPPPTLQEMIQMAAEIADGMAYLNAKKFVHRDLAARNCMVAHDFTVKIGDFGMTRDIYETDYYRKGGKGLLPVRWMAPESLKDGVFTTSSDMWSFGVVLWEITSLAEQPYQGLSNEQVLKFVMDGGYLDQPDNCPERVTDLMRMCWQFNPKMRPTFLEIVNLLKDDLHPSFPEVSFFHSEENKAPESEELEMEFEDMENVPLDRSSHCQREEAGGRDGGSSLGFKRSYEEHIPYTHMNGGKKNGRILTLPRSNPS

[2] = target: T2, IGF-1 Receptor (Homo sapiens, UniProt P08069); test: IGF-1 receptor phosphorylation assay; format: cell-based; set-up: expressed in transfected cells; host or cells: HEK293; conditions: Table 10
T2 sequence (P08069 31-736 limits assumed): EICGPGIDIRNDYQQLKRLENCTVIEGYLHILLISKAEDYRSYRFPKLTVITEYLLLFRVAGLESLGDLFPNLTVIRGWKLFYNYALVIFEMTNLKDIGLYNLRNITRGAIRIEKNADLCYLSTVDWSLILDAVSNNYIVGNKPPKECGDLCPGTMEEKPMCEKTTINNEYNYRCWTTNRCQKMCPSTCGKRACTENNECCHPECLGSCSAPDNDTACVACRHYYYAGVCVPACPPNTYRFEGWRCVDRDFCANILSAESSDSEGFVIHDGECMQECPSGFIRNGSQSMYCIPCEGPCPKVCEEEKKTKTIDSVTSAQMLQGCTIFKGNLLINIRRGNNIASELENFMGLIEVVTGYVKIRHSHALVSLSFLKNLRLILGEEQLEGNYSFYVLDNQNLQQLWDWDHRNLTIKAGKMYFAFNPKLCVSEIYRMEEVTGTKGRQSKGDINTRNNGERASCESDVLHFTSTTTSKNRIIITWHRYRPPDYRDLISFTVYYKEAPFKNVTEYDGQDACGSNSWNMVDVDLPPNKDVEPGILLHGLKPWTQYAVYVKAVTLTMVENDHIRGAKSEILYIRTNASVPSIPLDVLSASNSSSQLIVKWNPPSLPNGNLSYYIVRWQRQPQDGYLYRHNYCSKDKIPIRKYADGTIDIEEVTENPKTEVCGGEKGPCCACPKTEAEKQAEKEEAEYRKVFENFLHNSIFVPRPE
T2 sequence (P08069 741-1367 partner limits assumed): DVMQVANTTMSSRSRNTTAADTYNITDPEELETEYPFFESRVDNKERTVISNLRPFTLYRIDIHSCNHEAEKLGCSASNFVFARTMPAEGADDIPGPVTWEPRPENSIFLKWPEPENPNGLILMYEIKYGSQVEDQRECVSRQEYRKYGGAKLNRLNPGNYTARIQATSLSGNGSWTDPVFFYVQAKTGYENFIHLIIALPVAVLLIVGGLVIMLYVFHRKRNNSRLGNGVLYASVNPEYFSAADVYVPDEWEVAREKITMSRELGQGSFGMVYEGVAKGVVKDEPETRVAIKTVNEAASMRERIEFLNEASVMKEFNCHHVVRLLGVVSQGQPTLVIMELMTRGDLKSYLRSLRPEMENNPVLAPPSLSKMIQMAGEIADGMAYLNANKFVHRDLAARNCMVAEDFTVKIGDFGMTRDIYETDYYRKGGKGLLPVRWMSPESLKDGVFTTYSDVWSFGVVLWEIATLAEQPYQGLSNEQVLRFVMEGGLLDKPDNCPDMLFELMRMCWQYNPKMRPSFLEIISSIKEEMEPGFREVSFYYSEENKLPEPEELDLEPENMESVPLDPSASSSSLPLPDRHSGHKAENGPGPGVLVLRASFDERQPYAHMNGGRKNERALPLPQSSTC

[3] = target: T2, IGF-1 Receptor; test: IGF-1 receptor binding assay (scintillation proximity competition); set-up: expressed in transfected cells; plasma membrane fragments; conditions: Table 9
[4] = target: T3, insulin receptor (receptor transfected HEK293 cells) (Homo sapiens, UniProt P06213); test: Insulin receptor phosphorylation assay; format: cell-based; conditions: for % Activity of Insulin: Table 3B, in vitro phosphorylation
T3 construct: expressed in transfected cells; host or cells: HEK293
T3 sequence (P06213 28-758 limits assumed): as the sequence (P06213 28-758 limits assumed) above
T3 sequence (P06213 763-1382 partner limits assumed): as the sequence (P06213 763-1382 partner limits assumed) above

[5] = system: C57/Blk mice; test: Comparative insulin tolerance test (blood glucose lowering) in mice; format: in vivo; conditions: C57 black mice
Text: […]. […] […]. These in vivo results are consistent with the in vitro analysis.
[…]. […] […].

[6] = target: insulin A subtype receptor (IR-A) (Homo sapiens, UniProt P06213); test: Phosphorylation assay at insulin A subtype receptor; conditions: Table 14
Chain of insulin A subtype receptor (IR-A) (P06213 28-1370 isoform P06213-2 limits assumed): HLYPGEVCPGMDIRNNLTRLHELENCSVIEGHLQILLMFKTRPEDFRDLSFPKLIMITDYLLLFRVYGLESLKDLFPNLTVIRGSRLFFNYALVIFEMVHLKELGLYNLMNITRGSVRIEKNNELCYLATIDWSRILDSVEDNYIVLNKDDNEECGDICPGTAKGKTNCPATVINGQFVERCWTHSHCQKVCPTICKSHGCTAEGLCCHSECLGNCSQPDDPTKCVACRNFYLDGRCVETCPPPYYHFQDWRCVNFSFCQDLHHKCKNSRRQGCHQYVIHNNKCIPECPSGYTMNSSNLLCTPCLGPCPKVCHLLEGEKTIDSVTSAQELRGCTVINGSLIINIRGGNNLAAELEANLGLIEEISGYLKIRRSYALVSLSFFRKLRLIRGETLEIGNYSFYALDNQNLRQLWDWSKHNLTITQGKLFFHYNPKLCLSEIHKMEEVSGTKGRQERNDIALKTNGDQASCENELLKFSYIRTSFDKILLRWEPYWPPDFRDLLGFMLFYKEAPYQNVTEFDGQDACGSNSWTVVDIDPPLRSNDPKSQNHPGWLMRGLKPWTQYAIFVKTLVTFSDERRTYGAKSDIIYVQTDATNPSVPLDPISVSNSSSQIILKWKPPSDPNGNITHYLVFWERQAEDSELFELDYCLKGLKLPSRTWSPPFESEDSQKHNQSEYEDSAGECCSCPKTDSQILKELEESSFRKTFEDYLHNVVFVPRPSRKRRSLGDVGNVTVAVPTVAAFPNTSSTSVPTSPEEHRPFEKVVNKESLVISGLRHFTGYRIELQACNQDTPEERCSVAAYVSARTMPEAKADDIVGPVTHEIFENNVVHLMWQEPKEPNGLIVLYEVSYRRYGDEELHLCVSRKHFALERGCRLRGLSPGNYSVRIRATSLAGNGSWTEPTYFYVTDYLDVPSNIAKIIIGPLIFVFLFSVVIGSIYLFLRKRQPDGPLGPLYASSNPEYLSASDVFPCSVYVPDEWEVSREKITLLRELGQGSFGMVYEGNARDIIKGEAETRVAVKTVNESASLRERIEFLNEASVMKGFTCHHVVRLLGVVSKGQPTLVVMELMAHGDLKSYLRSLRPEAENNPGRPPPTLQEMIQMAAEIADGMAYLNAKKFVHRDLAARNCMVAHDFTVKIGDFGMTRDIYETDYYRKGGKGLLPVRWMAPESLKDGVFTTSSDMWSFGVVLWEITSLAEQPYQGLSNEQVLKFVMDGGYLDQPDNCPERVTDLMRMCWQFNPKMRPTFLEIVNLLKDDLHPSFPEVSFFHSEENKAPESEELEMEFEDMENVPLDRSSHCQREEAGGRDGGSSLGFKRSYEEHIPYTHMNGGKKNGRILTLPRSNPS
Chain of insulin A subtype receptor (IR-A) (P06213 763-1382 partner limits assumed): as the sequence (P06213 763-1382 partner limits assumed) above

[7] = target: insulin B subtype receptor (IR-B) (Homo sapiens, UniProt P06213); test: Phosphorylation assay at insulin B subtype receptor; conditions: Table 14
Chain of insulin B subtype receptor (IR-B) (P06213 28-758 limits assumed): as the sequence (P06213 28-758 limits assumed) above
Chain of insulin B subtype receptor (IR-B) (P06213 763-1382 partner limits assumed): as the sequence (P06213 763-1382 partner limits assumed) above

Compound: CC[C@H](C)[C@H](NC(=O)CN)C(=O)N[C@H](C(=O)N[C@@H](CC(=O)O)C(=O)N[C@@H](CCC(=O)O)C(=O)N[C@H]1CSSC[C@@H]2NC(=O)[C@H](CO)NC(=O)[C@H](C)NC(=O)[C@H](Cc3c[nH]cn3)NC(=O)[C@H](CSSC[C@H](NC(=O)[C@H](CC(C)C)NC(=O)[C@H](Cc3c[nH]cn3)NC(=O)[C@H](CCC(=O)O)NC(=O)[C@@H]3CCCN3C(=O)CN)C(=O)NCC(=O)N[C@@H](C)C(=O)N[C@@H](CC(=O)O)C(=O)N[C@@H](CC(C)C)C(=O)N[C@@H](C(C)C)C(=O)N[C@@H](CC(=O)O)C(=O)N[C@@H](C)C(=O)N[C@@H](CC(C)C)C(=O)N[C@@H](Cc3ccc(O)cc3)C(=O)N[C@@H](CC(C)C)C(=O)N[C@@H](C(C)C)C(=O)N[C@H](C(=O)NCC(=O)N[C@@H](CC(=O)O)C(=O)N[C@@H](C)C(=O)NCC(=O)N[C@@H](Cc3ccccc3)C(=O)N[C@@H](Cc3ccc(O)cc3)C(N)=O)CSSC[C@@H](C(=O)N[C@@H](CC(N)=O)C(=O)O)NC(=O)[C@H](Cc3ccc(O)cc3)NC(=O)[C@H](CC[S+](C)[O-])NC(=O)[C@H](CCC(=O)O)NC(=O)[C@H](CC(C)C)NC(=O)[C@H](CCCNC(=N)N)NC(=O)[C@H](CCCNC(=N)N)NC(=O)[C@H](CC(C)C)NC(=O)[C@H](CC(=O)O)NC2=O)NC1=O)C(C)C (stereo partly shown)
- Insulin Receptor % insulin (in test) ([1]; Table 9): 400.7%

- IGF-1 Receptor % IGF [2]: 181.395%
- IGF-1 Receptor % IGF-1 (in test) [3]: 12.9%
- Ratio ([1]; Table 9, IGF-1 receptor IC50 / insulin receptor IC50): 80.6
- Insulin Receptor % Insulin ([4]; Table 10, listed as IGF-1 A (H8 A9 N21) B (H5D10Y16L17) DPI A-COOH): 840% and 1080%
Compound: CC[C@H](C)[C@H](NC(=O)CN)C(=O)N[C@H](C(=O)N[C@@H](CC(=O)O)C(=O)N[C@@H](CCC(=O)O)C(=O)N[C@H]1CSSC[C@@H]2NC(=O)[C@H](CO)NC(=O)[C@H](C)NC(=O)[C@H](Cc3c[nH]cn3)NC(=O)[C@H](CSSC[C@H](NC(=O)[C@H](CC(C)C)NC(=O)[C@H](Cc3c[nH]cn3)NC(=O)[C@H](CCC(=O)O)NC(=O)[C@@H]3CCCN3C(=O)CN)C(=O)NCC(=O)N[C@@H](C)C(=O)N[C@@H](CC(=O)O)C(=O)N[C@@H](CC(C)C)C(=O)N[C@@H](C(C)C)C(=O)N[C@@H](CC(=O)O)C(=O)N[C@@H](C)C(=O)N[C@@H](CC(C)C)C(=O)N[C@@H](Cc3ccc(O)cc3)C(=O)N[C@@H](CC(C)C)C(=O)N[C@@H](C(C)C)C(=O)N[C@H](C(=O)NCC(=O)N[C@@H](CC(=O)O)C(=O)N[C@@H](CCCNC(=N)N)C(=O)NCC(=O)N[C@@H](Cc3ccccc3)C(=O)N[C@@H](Cc3ccc(O)cc3)C(N)=O)CSSC[C@@H](C(=O)N[C@@H](CC(N)=O)C(=O)O)NC(=O)[C@H](Cc3ccc(O)cc3)NC(=O)[C@H](CCSC)NC(=O)[C@H](CCC(=O)O)NC(=O)[C@H](CC(C)C)NC(=O)[C@H](CCCNC(=N)N)NC(=O)[C@H](CCCNC(=N)N)NC(=O)[C@H](CC(C)C)NC(=O)[C@H](CC(=O)O)NC2=O)NC1=O)C(C)C

Compound: CC[C@H](C)[C@H](NC(=O)CN)C(=O)N[C@H](C(=O)N[C@@H](CC(=O)O)C(=O)N[C@@H](CCC(=O)O)C(=O)N[C@@H](C)C(=O)N[C@@H](C)C(=O)N[C@@H](Cc1ccccc1)C(=O)N[C@@H](CCCNC(=N)N)C(=O)N[C@@H](CO)C(=O)N[C@@H](C)C(=O)N[C@@H](CC(=O)O)C(=O)N[C@@H](CC(C)C)C(=O)N[C@@H](CCCNC(=N)N)C(=O)N[C@@H](CCCNC(=N)N)C(=O)N[C@@H](CC(C)C)C(=O)N[C@@H](CCC(=O)O)C(=O)N[C@@H](CCSC)C(=O)N[C@@H](Cc1ccc(NC(=O)[C@@H]2CCCN2C(=O)C(C)(C)N)cc1)C(=O)N[C@@H](C)C(=O)N[C@@H](C)C(N)=O)C(C)C [Aib Pro] (HELM PEPTIDE1{G.I.V.D.E.A.A.F.R.S.A.D.L.R.R.L.E.M.[O=C([C@H](Cc1ccc(N[*:3])cc1)N[*:1])[*:2]].A.A.[am]}|PEPTIDE2{[Aib].P}$PEPTIDE1,PEPTIDE2,19:R3-2:R2$$$V2.0)
- Half Life, 20% Plasma/PBS: 2.1 h

Compound: CC[C@H](C)[C@H](NC(=O)CN)C(=O)N[C@H](C(=O)N[C@@H](CC(=O)O)C(=O)N[C@@H](CCC(=O)O)C(=O)N[C@@H](C)C(=O)N[C@@H](C)C(=O)N[C@@H](Cc1ccccc1)C(=O)N[C@@H](CCCNC(=N)N)C(=O)N[C@@H](CO)C(=O)N[C@@H](C)C(=O)N[C@@H](CC(=O)O)C(=O)N[C@@H](CC(C)C)C(=O)N[C@@H](CCCNC(=N)N)C(=O)N[C@@H](CCCNC(=N)N)C(=O)N[C@@H](CC(C)C)C(=O)N[C@@H](CCC(=O)O)C(=O)N[C@@H](CCSC)C(=O)N[C@@H](Cc1ccc(NC(=O)[C@H]2CCCN2C(=O)C(C)(C)N)cc1)C(=O)N[C@@H](C)C(=O)N[C@@H](C)C(N)=O)C(C)C [Aib dPro] (HELM PEPTIDE1{G.I.V.D.E.A.A.F.R.S.A.D.L.R.R.L.E.M.[O=C([C@H](Cc1ccc(N[*:3])cc1)N[*:1])[*:2]].A.A.[am]}|PEPTIDE2{[Aib].[dP]}$PEPTIDE1,PEPTIDE2,19:R3-2:R2$$$V2.0)
- Half Life, 20% Plasma/PBS: 2.2 h

- % of Insulin Activity ([1]; Table 8): 37.12%
Compound: CC[C@H](C)[C@H](NC(=O)CNC(=O)[C@@H]1CCCN1C(=O)[C@H](C)N)C(=O)N[C@H](C(=O)N[C@@H](CC(=O)O)C(=O)N[C@@H](CCC(=O)O)C(=O)N[C@H]1CSSC[C@@H]2NC(=O)[C@H](CO)NC(=O)[C@H](CCCNC(=N)N)NC(=O)[C@H](Cc3ccccc3)NC(=O)[C@H](CSSC[C@H](NC(=O)[C@H](CC(C)C)NC(=O)[C@@H](NC(=O)[C@H](CCC(=O)O)NC(=O)[C@@H]3CCCN3C(=O)CN)[C@@H](C)O)C(=O)NCC(=O)N[C@@H](C)C(=O)N[C@@H](CCC(=O)O)C(=O)N[C@@H](CC(C)C)C(=O)N[C@@H](C(C)C)C(=O)N[C@@H](CC(=O)O)C(=O)N[C@@H](C)C(=O)N[C@@H](CC(C)C)C(=O)N[C@@H](Cc3ccc(O)cc3)C(=O)N[C@@H](CC(C)C)C(=O)N[C@@H](C(C)C)C(=O)N[C@H](C(=O)NCC(=O)N[C@@H](CC(=O)O)C(=O)N[C@@H](CCCNC(=N)N)C(=O)NCC(=O)N[C@@H](Cc3ccccc3)C(=O)N[C@@H](Cc3ccc(O)cc3)C(=O)N[C@@H](Cc3ccccc3)C(=O)N[C@@H](CC(N)=O)C(=O)N[C@@H](CCCCN)C(=O)N3CCC[C@H]3C(=O)N[C@H](C(N)=O)[C@@H](C)O)CSSC[C@@H](C(=O)N[C@@H](C)C(N)=O)NC(=O)[C@H](Cc3ccc(O)cc3)NC(=O)[C@H](CCSC)NC(=O)[C@H](CCC(=O)O)NC(=O)[C@H](CC(C)C)NC(=O)[C@H](CCCNC(=N)N)NC(=O)[C@H](CCCNC(=N)N)NC(=O)[C@H](CC(C)C)NC(=O)[C@H](CC(=O)O)NC2=O)NC1=O)C(C)C [IGF1(YL)A-1, 0^B16, 17(AlaPro)]
- insulin receptor binding (in words) ([1]; relative to native insulin): substantially reduced affinity for the insulin receptor

Compound: CC[C@H](C)[C@H](NC(=O)CN)C(=O)N[C@H](C(=O)N[C@@H](CC(=O)O)C(=O)N[C@@H](CCC(=O)O)C(=O)N[C@@H](C)C(=O)N[C@@H](C)C(=O)N[C@@H](Cc1ccccc1)C(=O)N[C@@H](CCCNC(=N)N)C(=O)N[C@@H](CO)C(=O)N[C@@H](C)C(=O)N[C@@H](CC(=O)O)C(=O)N[C@@H](CC(C)C)C(=O)N[C@@H](CCCNC(=N)N)C(=O)N[C@@H](CCCNC(=N)N)C(=O)N[C@@H](CC(C)C)C(=O)N[C@@H](CCC(=O)O)C(=O)N[C@@H](CCSC)C(=O)N[C@@H](Cc1ccc(NC(=O)CN(C)C(=O)[C@@H](N)CCCCN)cc1)C(=O)N[C@@H](C)C(=O)N[C@@H](C)C(N)=O)C(C)C [K Sar] (HELM PEPTIDE1{G.I.V.D.E.A.A.F.R.S.A.D.L.R.R.L.E.M.[O=C([C@H](Cc1ccc(N[*:3])cc1)N[*:1])[*:2]].A.A.[am]}|PEPTIDE2{K.[Sar]}$PEPTIDE1,PEPTIDE2,19:R3-2:R2$$$V2.0)
- Half Life, 20% Plasma/PBS: 5.9 h

- % Activity of Insulin ([1]; incubated 0 hr in 20% plasma/PBS at 37° C.): 34.44%
- % Activity of Insulin ([1]; incubated 9 hr in 20% plasma/PBS at 37° C.): 100.09%
- % Activity of Insulin ([1]; incubated 95 hr in 20% plasma/PBS at 37° C.): 115.42%
- % Activity of Insulin ([4]; incubated 1 hr in 20% plasma): 23.0%
- % Activity of Insulin ([4]; incubated 3 hr in 20% plasma): 26.8%
- % Activity of Insulin ([4]; incubated 6 hr in 20% plasma): 32.5%
- % Activity of Insulin ([4]; incubated 9 hr in 20% plasma): 41.1%
- % Activity of Insulin ([4]; incubated […] in 20% plasma): 43.2%
Compound: B^1(Y16,L17,Y25)29a: A^1(dLys(Ac),Sar-aF19) [MIU30]
- blood glucose (differential AUC vs vehicle, 8 hr) ([5]; 90 nmol/kg): little change in glucose
- blood glucose (differential AUC vs vehicle, 8 hr) ([5]; 270 nmol/kg): glucose lowering

- % (of insulin) [6]: 81%
- % (of insulin) [7]: 48%
Compound: I: X1-GPEHLCGAHLVDALYLVCGDRGFY-NH2 / II: H-GIVDECCFRSCDLRRLEN[Phe(4-NH2)]CN-OH (disulfide I:6-II:7, I:18-II:20, II:6-II:11) [Unpegylated pNH2F, B^1Aoa2(H5, H10,Y16,L17)25a: A^1(pNH2—F19, N18, N21]
